Patent US6221864A, “Prophylactic or therapeutic agent for diseases attributable to infection with helicobacters” (priority 1997, dated 2001)
Converted amounts (≈) assume the structure as drawn.

How the values were obtained:
[1] = tested on: H. pylori clinically isolated strains (18 strains); test: In vitro antibacterial activity against H. pylori clinically isolated strains (agar dilution MIC); format: cell-based; conditions: Helicobacter pylori, 18 clinically isolated strains, agar plate, 8% CO2, 37° C., 3 to 4 days
Method: Clinically isolated strains (18 strains) were cultured using 5% horse serum under microaerophilic conditions at 37° C. for 72 hours and diluted with Brucella broth to give a bacterial solution at about 10^6 cells/ml. The diluted bacterial solution was inoculated with a microplanter on an agar plate containing 2-fold dilution concentration series of test compound and cultured under 8% CO2 at 37° C. for 3 to 4 days. Thereafter, the minimum growth inhibitory concentration (MIC) was measured. MIC50 (minimum concentration to inhibit growth in 50% of the test strains) and MIC90 (minimum concentration to inhibit growth in 90% of the test strains) were calculated from the obtained values.

[2] = tested on: H. pylori ATCC 43504 Type strain; test: Bacterial eradication in H. pylori-infected Mongolian gerbils, alone or combined with famotidine, twice a day for 3 days; format: in vivo, Mongolian gerbil; conditions: bid
Method: To a male 7-week-old Mongolian gerbil after fasting for about 20 hours, was inoculated orally a culture broth of H. pylori ATCC 43504 Type strain upon 24 hours of culture. After administration of the culture broth, the Mongolian gerbil was fasted and deprived of water for about 4 hours, after which a normal solid feed and drinking water were given to Mongolian gerbils infected with H. pylori. Starting from 6 weeks after infection, the compound of the present invention and famotidine which is a histamine H2 antagonist were administered alone or in combination twice a day for 3 days. The compound of the present invention was administered orally and famotidine was subcutaneously administered immediately before administration of the compound of the present invention. After completion of the drug administration, Mongolian gerbils were sacrificed at day 3. The stomach was excised and incised along greater curvature and its content was removed. The stomach was homogenized in 10 ml of phosphate buffer--physiological saline. […] The medium was incubated under CO2 and the colonies of H. pylori were counted. A case where colonies were not detected was evaluated as the case of bacterial eradication. As a control, phosphate buffer--physiological saline was used.

H. pylori = test: MIC given in Table 1 beside eradication in H. pylori-infected Mongolian gerbils; format: cell-based; conditions: Helicobacter pylori
Method: Clinically isolated strains (18 strains) were cultured using 5% horse serum under microaerophilic conditions at 37° C. for 72 hours and diluted with Brucella broth to give a bacterial solution at about 10^6 cells/ml. The diluted bacterial solution was inoculated with a microplanter on an agar plate containing 2-fold dilution concentration series of test compound and cultured under 8% CO2 at 37° C. for 3 to 4 days. Thereafter, the minimum growth inhibitory concentration (MIC) was measured. MIC50 (minimum concentration to inhibit growth in 50% of the test strains) and MIC90 (minimum concentration to inhibit growth in 90% of the test strains) were calculated from the obtained values. To a male 7-week-old Mongolian gerbil after fasting for about 20 hours, was inoculated orally a culture broth of H. pylori ATCC 43504 Type strain upon 24 hours of culture. After administration of the culture broth, the Mongolian gerbil was fasted and deprived of water for about 4 hours, after which a normal solid feed and drinking water were given to Mongolian gerbils infected with H. pylori. Starting from 6 weeks after infection, the drug was orally administered twice a day for 7 days. […] The medium was incubated under CO2 and the colonies of H. pylori were counted. A case where colonies were not detected was evaluated as the case of bacterial eradication.

[3] = tested on: H. pylori ATCC 43504 Type strain; test: Bacterial eradication in H. pylori-infected Mongolian gerbils, drug orally twice a day for 7 days; format: in vivo, Mongolian gerbil; conditions: bid, oral
Method: To a male 7-week-old Mongolian gerbil after fasting for about 20 hours, was inoculated orally a culture broth of H. pylori ATCC 43504 Type strain upon 24 hours of culture. After administration of the culture broth, the Mongolian gerbil was fasted and deprived of water for about 4 hours, after which a normal solid feed and drinking water were given to Mongolian gerbils infected with H. pylori. Starting from 6 weeks after infection, the drug was orally administered twice a day for 7 days. After completion of the drug administration, Mongolian gerbils were sacrificed at day 3. The stomach was excised and incised along greater curvature, and its content was removed. The stomach was homogenized in 10 ml of phosphate buffer--physiological saline in a homogenizer. The homogenate was appropriately diluted with the same buffer and 0.1 ml of sample was plated onto H. pylori selective medium. The medium was incubated under CO2 and the colonies of H. pylori were counted. A case where colonies were not detected was evaluated as the case of bacterial eradication.

| Structure (SMILES) | MIC50 ([1]; read-out: MIC50 (minimum concentration to inhibit growth in 50% of the test strains)) [µg/mL] | MIC90 ([1]; read-out: MIC90 (minimum concentration to inhibit growth in 90% of the test strains)) [µg/mL] | Eradication rate ([2]; 0.3 mg/kg, oral) [%] | Eradication rate ([2]; 1.0 mg/kg, oral) [%] | Eradication rate ([2]; 3.0 mg/kg, oral) [%] | visual and histopathological repair of inflammatory state [2] | bacterial eradication effect when concurrently administered with famotidine (in words) ([2]; with famotidine subcutaneous) | bacterial eradication effect by single administration (in words) ([2]; without famotidine) | MIC (H. pylori) [µg/mL] | Eradication rate ([3]; 0.3 mg/kg) [%] | Eradication rate ([3]; 1.0 mg/kg) [%] | Eradication rate ([3]; 3.0 mg/kg) [%] | bacterial eradication of H. pylori (in words) [3] | visual and histopathological repair of inflammatory state [3] | Eradication rate ([3]; 10.0 mg/kg) [%] | Eradication rate ([2]; 100 mg/kg, subcutaneous) [%] |
| --- | --- | --- | --- | --- | --- | --- | --- | --- | --- | --- | --- | --- | --- | --- | --- | --- |
| COc1c(N2CCO[C@@H](CN(C)C)C2)c(F)cc2c(=O)c(C(=O)O)cn(C3CC3)c12 [Y-34867, (S)-1-cyclopropyl-1,4-dihydro-7-[2-(N,N-dimethylaminomethyl)morpholino]-6-fluoro-8-methoxy-4-oxoquinoline-3-carboxylic acid] | 0.025 (≈ 0.0596 µM) | 0.05 (≈ 0.119 µM) | 0 | 60 | 100 | promoted | the effect is enforced | superior bacterial eradication effect | 0.025 (≈ 0.0596 µM) | 0 | 80 | 100 | evident bacterial eradication of H. pylori | promoted |  |  |
| CC1(C)S[C@@H]2[C@H](NC(=O)[C@H](N)c3ccc(O)cc3)C(=O)N2[C@H]1C(=O)O [amoxicillin, reference compound] |  |  |  |  |  |  |  |  | 0.025 (≈ 0.0684 µM) |  |  | 0 |  |  | 100 |  |
| NC(N)=Nc1nc(CSCCC(N)=NS(N)(=O)=O)cs1 [famotidine, reference compound] |  |  |  |  |  |  |  |  |  |  |  |  |  |  |  | 0 |
